Patent US11572590B2, “Methods for evaluating tumor cell spheroids using 3D microfluidic cell culture device” (Dana-Farber Cancer Institute, Inc., priority 2017, dated 2023)
Read-outs that look alike come from different tables or passages of the source.

Key:
Assay in all cases: SelectScreen Kinase Profiling, single point inhibition and IC50 for off-target kinases
Format in all cases: biochemical
off-target kinases [1] = target: off-target kinases (Homo sapiens, UniProt P24941)
off-target kinases [2] = target: off-target kinases (Homo sapiens, UniProt P27448); conditions: MARK3, ATP Km app, ZLYTE
off-target kinases [3] = target: off-target kinases (Homo sapiens, UniProt Q15375); conditions: EPHA7, LanthaScreen Binding
off-target kinases [4] = target: off-target kinases (Homo sapiens, UniProt Q15746); conditions: MYLK (MLCK), LanthaScreen Binding
off-target kinases [5] = target: T1, off-target kinases (Homo sapiens, UniProt Q96PY6); conditions: NEK1, ATP Km app, ZLYTE
T1 sequence (Q96PY6 1-1258): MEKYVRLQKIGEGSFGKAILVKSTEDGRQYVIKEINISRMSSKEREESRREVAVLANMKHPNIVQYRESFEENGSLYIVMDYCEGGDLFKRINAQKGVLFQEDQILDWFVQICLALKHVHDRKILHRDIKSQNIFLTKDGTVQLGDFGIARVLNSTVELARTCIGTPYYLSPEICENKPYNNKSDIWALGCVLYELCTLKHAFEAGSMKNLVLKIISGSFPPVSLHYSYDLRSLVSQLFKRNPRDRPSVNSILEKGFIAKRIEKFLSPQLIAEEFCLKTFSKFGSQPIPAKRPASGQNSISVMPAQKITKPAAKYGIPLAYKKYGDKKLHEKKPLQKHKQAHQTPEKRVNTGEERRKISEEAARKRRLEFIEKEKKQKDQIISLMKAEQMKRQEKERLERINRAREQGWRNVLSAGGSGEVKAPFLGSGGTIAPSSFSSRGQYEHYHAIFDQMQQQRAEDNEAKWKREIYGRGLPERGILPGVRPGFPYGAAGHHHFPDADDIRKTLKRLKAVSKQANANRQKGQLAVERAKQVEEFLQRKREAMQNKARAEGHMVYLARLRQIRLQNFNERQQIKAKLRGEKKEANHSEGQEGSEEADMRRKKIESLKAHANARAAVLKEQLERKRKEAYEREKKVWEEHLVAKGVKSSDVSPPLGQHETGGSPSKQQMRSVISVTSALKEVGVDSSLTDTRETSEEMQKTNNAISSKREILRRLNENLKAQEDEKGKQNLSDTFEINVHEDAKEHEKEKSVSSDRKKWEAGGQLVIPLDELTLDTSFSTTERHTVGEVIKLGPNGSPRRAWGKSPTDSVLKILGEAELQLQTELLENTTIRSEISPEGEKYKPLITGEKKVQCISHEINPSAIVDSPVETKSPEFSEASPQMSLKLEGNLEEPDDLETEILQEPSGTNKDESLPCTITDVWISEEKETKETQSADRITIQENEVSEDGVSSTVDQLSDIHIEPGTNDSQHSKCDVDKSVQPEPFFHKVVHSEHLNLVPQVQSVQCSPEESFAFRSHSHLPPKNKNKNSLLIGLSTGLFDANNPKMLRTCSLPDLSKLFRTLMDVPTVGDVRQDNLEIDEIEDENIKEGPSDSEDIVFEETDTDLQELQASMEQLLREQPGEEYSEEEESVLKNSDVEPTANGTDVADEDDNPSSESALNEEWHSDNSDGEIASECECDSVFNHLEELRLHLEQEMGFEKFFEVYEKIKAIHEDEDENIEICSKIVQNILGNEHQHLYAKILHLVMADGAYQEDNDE

Chain of off-target kinases (Homo sapiens, UniProt Q15746) (Q15746 whole entry): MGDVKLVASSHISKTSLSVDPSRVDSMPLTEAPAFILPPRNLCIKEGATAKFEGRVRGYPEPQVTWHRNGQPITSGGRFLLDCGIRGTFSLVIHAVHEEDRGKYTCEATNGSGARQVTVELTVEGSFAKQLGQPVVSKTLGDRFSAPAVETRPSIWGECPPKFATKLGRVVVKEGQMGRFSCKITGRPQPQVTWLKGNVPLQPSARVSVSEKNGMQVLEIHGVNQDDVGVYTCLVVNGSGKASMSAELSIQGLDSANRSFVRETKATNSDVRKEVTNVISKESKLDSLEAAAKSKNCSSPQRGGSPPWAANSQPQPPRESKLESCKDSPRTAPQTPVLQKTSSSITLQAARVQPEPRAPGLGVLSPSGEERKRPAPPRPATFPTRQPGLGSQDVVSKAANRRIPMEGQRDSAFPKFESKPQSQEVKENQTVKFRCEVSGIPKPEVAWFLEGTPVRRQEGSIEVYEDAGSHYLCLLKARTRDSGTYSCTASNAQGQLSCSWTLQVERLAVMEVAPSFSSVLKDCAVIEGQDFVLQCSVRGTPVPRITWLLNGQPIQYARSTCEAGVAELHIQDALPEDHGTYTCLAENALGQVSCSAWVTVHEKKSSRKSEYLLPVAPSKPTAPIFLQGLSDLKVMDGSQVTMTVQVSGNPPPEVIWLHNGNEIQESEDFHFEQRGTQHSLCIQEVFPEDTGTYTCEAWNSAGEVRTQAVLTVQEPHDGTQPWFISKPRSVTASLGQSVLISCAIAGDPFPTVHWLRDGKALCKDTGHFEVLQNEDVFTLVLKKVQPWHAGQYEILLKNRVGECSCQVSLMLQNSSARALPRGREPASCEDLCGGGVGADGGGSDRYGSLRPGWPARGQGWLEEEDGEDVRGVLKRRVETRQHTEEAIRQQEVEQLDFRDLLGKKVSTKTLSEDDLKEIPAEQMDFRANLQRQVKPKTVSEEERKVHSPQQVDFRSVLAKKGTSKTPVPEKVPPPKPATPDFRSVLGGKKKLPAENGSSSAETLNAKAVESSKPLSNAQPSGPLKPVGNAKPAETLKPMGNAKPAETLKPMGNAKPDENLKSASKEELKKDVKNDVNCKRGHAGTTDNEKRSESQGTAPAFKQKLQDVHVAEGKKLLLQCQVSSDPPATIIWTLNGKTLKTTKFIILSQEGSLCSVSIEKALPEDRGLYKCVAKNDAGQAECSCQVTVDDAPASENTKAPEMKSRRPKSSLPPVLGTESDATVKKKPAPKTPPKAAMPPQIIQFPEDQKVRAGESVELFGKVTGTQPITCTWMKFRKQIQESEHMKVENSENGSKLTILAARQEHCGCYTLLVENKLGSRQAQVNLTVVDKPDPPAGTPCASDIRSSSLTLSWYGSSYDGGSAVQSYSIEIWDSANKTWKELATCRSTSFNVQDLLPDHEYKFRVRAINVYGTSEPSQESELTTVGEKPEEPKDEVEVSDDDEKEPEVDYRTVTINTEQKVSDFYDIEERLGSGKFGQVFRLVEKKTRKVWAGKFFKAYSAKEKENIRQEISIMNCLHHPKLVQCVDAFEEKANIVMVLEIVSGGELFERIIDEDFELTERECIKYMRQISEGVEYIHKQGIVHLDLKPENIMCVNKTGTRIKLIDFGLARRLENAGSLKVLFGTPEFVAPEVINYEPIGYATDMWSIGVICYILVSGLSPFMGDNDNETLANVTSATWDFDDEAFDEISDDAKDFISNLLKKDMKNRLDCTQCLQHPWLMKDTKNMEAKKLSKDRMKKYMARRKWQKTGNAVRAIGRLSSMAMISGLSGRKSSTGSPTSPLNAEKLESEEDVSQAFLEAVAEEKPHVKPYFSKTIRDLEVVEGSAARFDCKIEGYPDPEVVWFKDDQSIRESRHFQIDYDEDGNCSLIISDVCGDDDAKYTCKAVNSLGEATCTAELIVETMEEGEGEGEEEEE
Chain of off-target kinases (Homo sapiens, UniProt Q15375) (Q15375 28-998): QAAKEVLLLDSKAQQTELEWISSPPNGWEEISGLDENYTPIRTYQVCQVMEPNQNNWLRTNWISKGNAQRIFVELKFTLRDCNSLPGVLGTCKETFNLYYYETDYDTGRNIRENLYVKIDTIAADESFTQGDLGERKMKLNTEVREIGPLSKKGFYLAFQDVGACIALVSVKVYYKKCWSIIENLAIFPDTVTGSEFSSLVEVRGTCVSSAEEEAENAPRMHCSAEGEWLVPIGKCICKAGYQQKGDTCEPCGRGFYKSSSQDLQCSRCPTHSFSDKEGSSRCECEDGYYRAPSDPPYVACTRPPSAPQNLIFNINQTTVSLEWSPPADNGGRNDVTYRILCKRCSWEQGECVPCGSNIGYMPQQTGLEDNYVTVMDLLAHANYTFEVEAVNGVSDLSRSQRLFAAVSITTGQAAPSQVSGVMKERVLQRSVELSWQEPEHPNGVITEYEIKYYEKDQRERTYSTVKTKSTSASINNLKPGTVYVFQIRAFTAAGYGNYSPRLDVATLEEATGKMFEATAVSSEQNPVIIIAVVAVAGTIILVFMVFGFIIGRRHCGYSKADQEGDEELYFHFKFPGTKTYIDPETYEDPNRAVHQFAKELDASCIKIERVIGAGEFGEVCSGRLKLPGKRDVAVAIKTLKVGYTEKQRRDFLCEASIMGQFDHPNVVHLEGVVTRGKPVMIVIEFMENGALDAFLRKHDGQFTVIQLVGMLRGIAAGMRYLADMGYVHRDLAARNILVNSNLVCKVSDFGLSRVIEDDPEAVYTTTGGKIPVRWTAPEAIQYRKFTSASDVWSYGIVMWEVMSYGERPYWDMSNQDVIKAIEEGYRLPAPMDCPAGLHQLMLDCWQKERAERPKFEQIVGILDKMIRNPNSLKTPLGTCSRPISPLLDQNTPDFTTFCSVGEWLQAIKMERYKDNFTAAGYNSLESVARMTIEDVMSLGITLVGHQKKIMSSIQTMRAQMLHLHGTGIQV
Chain of off-target kinases (Homo sapiens, UniProt P27448) (P27448 whole entry): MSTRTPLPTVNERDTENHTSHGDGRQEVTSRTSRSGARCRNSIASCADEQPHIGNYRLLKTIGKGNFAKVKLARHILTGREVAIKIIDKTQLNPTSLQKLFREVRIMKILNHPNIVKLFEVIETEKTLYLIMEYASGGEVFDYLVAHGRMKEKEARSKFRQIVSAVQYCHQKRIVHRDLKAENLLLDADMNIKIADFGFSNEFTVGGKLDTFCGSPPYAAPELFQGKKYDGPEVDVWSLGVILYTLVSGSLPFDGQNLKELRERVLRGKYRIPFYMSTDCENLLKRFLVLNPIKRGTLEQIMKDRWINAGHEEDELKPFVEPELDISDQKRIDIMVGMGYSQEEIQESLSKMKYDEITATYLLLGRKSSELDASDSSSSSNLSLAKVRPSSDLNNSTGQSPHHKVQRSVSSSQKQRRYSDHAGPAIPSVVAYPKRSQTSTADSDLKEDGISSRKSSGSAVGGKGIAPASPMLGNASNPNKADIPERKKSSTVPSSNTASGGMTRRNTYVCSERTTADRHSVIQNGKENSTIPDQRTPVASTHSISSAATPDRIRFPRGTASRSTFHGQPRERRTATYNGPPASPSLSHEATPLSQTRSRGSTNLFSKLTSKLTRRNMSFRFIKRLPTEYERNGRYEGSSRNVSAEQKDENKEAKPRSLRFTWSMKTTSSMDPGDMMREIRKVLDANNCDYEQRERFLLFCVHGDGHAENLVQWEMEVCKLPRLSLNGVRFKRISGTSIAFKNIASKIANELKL

## N#Cc1cc(-c2ncnc(Nc3ccc(N4CCN(C5COC5)CC4)cc3)n2)ccc1OC1CCOCC1 [Compound 1, 5-(4-((4-(4-(oxetan-3-yl)piperazin-1-yl)phenyl)amino)-1,3,5-triazin-2-yl)-2-((tetrahydro-2H-pyran-4-yl)oxy)benzonitrile]
off-target kinases [1]; CDK2/cyclin A1, LanthaScreen Binding, read-out: % Inhibition 1
  inhibition: 33%
off-target kinases [1]; CDK2/cyclin A1, LanthaScreen Binding, read-out: % Inhibition 2
  inhibition: 39%
off-target kinases [1]; CDK2/cyclin A1, LanthaScreen Binding, read-out: % Inhibition Avg
  inhibition: 36%
off-target kinases [1]; CDK2/cyclin A2, LanthaScreen Binding, read-out: % Inhibition 1
  inhibition: 24%
off-target kinases [1]; CDK2/cyclin A2, LanthaScreen Binding, read-out: % Inhibition 2
  inhibition: 29%
off-target kinases [1]; CDK2/cyclin A2, LanthaScreen Binding, read-out: % Inhibition Avg
  inhibition: 26%
off-target kinases [1]; CDK2/cyclin A, ZLYTE, ATP Km app, read-out: % Inhibition 1
  inhibition: 38%
off-target kinases [1]; CDK2/cyclin A, ZLYTE, ATP Km app, read-out: % Inhibition 2
  inhibition: 36%
off-target kinases [1]; CDK2/cyclin A, ZLYTE, ATP Km app, read-out: % Inhibition Avg
  inhibition: 37%
off-target kinases [1]; CDK2/cyclin E1, LanthaScreen Binding, read-out: % Inhibition 1
  inhibition: 15%
off-target kinases [1]; CDK2/cyclin E1, LanthaScreen Binding, read-out: % Inhibition 2
  inhibition: 17%
off-target kinases [1]; CDK2/cyclin E1, LanthaScreen Binding, read-out: % Inhibition Avg
  inhibition: 16%
off-target kinases [1]; CDK2/cyclin O, LanthaScreen, read-out: % Inhibition 1
  inhibition: 39%
off-target kinases [1]; CDK2/cyclin O, LanthaScreen, read-out: % Inhibition 2
  inhibition: 42%
off-target kinases [1]; CDK2/cyclin O, LanthaScreen, read-out: % Inhibition Avg
  inhibition: 41%
off-target kinases [2]; read-out: % Inhibition 1
  inhibition: 98%
off-target kinases [2]; read-out: % Inhibition 2
  inhibition: 94%
off-target kinases [2]; read-out: % Inhibition Avg
  inhibition: 96%
off-target kinases [3]; read-out: % Inhibition 1
  inhibition: 10%
off-target kinases [3]; read-out: % Inhibition 2
  inhibition: 12%
off-target kinases [3]; read-out: % Inhibition Avg
  inhibition: 11%
off-target kinases [4]; read-out: % Inhibition 1
  inhibition: 5%
off-target kinases [4]; read-out: % Inhibition 2
  inhibition: 3%
off-target kinases [4]; read-out: % Inhibition Avg
  inhibition: 4%
off-target kinases [5]; read-out: % Inhibition 1
  inhibition: 68%
off-target kinases [5]; read-out: % Inhibition 2
  inhibition: 70%
off-target kinases [5]; read-out: % Inhibition Avg
  inhibition: 69%
